Legend:
Assay type in all cases: biochemical
aggrecanase-1 = biological target: T1, aggrecanase-1 (Homo sapiens, UniProt O75173); test: Aggrecanase-1 inhibitory action (Particle Assay, GAG release from aggrecan-containing polyacrylamide particles); conditions: aggrecanase-1 inhibitory action; read-out: IC50 AG1 (Experimental Example 1)
T1 sequence (O75173 213-837): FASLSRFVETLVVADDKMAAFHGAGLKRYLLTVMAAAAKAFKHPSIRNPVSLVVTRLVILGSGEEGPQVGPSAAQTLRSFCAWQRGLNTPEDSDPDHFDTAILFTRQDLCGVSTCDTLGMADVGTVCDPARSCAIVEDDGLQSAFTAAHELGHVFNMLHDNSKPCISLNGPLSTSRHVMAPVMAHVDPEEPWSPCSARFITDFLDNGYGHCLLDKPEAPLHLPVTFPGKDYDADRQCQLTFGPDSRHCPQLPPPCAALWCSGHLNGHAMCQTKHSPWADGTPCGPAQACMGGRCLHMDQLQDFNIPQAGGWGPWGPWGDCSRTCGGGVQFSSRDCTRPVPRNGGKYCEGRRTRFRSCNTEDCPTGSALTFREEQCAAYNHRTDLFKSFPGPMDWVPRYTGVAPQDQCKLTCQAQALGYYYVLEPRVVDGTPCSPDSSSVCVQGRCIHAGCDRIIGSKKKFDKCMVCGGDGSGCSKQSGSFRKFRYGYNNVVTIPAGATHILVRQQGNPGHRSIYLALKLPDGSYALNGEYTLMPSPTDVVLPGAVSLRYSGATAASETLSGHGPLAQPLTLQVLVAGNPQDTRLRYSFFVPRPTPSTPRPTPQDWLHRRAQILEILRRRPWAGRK
Method in brief: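 Enzyme and compound incubated with aggrecan-containing polyacrylamide particles in Tris-HCl buffer at 37° C for 15 h. Released GAG in supernatant measured with 1,9-dimethylmethylene blue at 595 nm against chondroitin sulfate standard; % inhibition from enzyme-free and inhibitor-free wells, reported as TC50 (μM).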

MMP-1 = biological target: T2, MMP-1 (Homo sapiens, UniProt P03956); test: MMP-1 inhibitory action (Type I collagen Activity Measurement kit, FITC-labeled collagen type I); conditions: MMP-1 inhibitory action, FITC-labeled collagen type I, 37° C. for 3 hr; read-out: IC50 MMP1 (Experimental Example 2)
T2 sequence (P03956 100-469): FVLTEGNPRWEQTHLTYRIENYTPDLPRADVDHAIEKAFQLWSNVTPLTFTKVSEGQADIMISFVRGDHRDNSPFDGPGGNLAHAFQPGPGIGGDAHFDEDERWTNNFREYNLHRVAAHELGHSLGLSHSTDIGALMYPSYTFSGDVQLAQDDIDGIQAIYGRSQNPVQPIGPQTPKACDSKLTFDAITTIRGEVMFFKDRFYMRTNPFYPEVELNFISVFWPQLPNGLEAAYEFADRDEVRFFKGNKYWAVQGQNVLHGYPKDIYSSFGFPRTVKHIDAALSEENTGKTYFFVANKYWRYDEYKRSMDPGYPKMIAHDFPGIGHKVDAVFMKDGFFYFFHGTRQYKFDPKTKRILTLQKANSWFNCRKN

Recombinant Human MMP-13 = biological target: T3, Recombinant Human MMP-13 (Homo sapiens, UniProt P45452); test: MMP-13 inhibitory activity (MMP-13 specific fluorescent substrate with quencher); conditions: Recombinant Human MMP-13, fluorescent substrate, 25° C. for 1 h; read-out: IC50 MMP13 (Experimental Example 3)
T3 construct: purchased R&D systems 511-MM
Method in brief: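 Recombinant human MMP-13 with test compound, reaction started with quenched fluorogenic peptide 7-MCA-Pro-CHA-Gly-NVal-His-Ala-DPA in Tris-HCl buffer, 1 h at 25 °C, stopped with acetic acid. Fluorescence at Ex 325/Em 405 nm; % inhibition versus enzyme-free and inhibitor-free wells, reported as IC50 (μM).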

| IC50 (aggrecanase-1) [nM] | IC50 (MMP-1) [nM] | IC50 (Recombinant Human MMP-13) [nM] | SMILES |
| --- | --- | --- | --- |
| ≥ 10000 | ≥ 10000 | ≥ 10000 | O=C(O)[C@]1(NS(=O)(=O)c2ccc3c(c2)CN(C2CCCCC2)C3)C[C@@H]1c1ccccc1 [Example 2-166] |
| < 1000 | ≥ 10000 | ≥ 1000 | O=C(O)[C@@]1(NS(=O)(=O)c2ccc(-c3ccc(Cl)cc3)s2)C[C@H]1c1ccccc1Br [Example 2-168] |
| < 100 | ≥ 1000 | < 100 | O=C(O)[C@]1(NS(=O)(=O)c2ccc(-c3cc(C(F)(F)F)on3)s2)C[C@@H]1c1cccc(Br)c1 [Example 2-169] |
| < 100 | ≥ 10000 | < 100 | O=C(O)[C@]1(NS(=O)(=O)c2ccc(-c3ccc(Cl)cc3)s2)C[C@@H]1c1cccc([N+](=O)[O-])c1 [Example 2-170] |
| < 1000 | ≥ 10000 | < 1000 | O=C(O)[C@]1(NS(=O)(=O)c2ccc(-c3cc(C(F)(F)F)no3)s2)C[C@@H]1c1ccccc1 [Example 2-171] |
| ≥ 10000 | ≥ 10000 | ≥ 1000 | CN1CC=C(c2ccc(S(=O)(=O)N[C@@]3(C(=O)O)C[C@@H]3c3ccccc3)s2)CC1 [Example 2-172] |
| < 100 | ≥ 1000 | < 100 | O=C(O)[C@]1(NS(=O)(=O)c2ccc(-c3ccc(Cl)cc3)s2)C[C@@H]1c1cccc(NCc2cccnc2)c1 [Example 2-173] |
| < 100 | ≥ 1000 | < 100 | Nc1cccc([C@H]2C[C@@]2(NS(=O)(=O)c2ccc(-c3ccc(Cl)cc3)s2)C(=O)O)c1 [Example 2-174] |
| < 100 | ≥ 1000 | < 1000 | O=C(O)c1cccc([C@H]2C[C@@]2(NS(=O)(=O)c2ccc(-c3ccc(Cl)cc3)s2)C(=O)O)c1 [Example 2-175] |
| < 100 | ≥ 10000 | < 100 | CN(C)c1cccc([C@H]2C[C@@]2(NS(=O)(=O)c2ccc(-c3ccc(Cl)cc3)s2)C(=O)O)c1 [Example 2-176] |
| ≥ 1000 | ≥ 10000 | ≥ 1000 | CC(=O)N1CC=C(c2ccc(S(=O)(=O)N[C@@]3(C(=O)O)C[C@@H]3c3ccccc3)s2)CC1 [Example 2-177] |
| < 100 | ≥ 10000 | < 1000 | O=C(O)[C@]1(NS(=O)(=O)c2ccc(-c3ccc(Cl)cc3)s2)C[C@@H]1c1ccccc1Br [Example 2-178] |
| < 100 | ≥ 10000 | < 1000 | O=C(O)CCc1ccccc1C1CC1(NS(=O)(=O)c1ccc(-c2ccc(Cl)cc2)s1)C(=O)O (stereo not drawn) [Example 2-179] |
| < 100 | ≥ 10000 | < 100 | O=C(O)CCc1cccc(C2CC2(NS(=O)(=O)c2ccc(-c3ccc(Cl)cc3)s2)C(=O)O)c1 (stereo not drawn) [Example 2-180] |
| < 100 | ≥ 1000 | < 100 | O=C(O)Cc1cccc(C2CC2(NS(=O)(=O)c2ccc(-c3ccc(Cl)cc3)s2)C(=O)O)c1 (stereo not drawn) [Example 2-181] |
| < 100 | ≥ 10000 | < 100 | O=C(O)[C@]1(NS(=O)(=O)c2ccc(-c3ccc(Cl)cc3)s2)C[C@@H]1c1cccc(CO)c1 [Example 2-182] |
| < 100 | ≥ 1000 | < 100 | CN(Cc1cccnc1)c1cccc([C@H]2C[C@@]2(NS(=O)(=O)c2ccc(-c3ccc(Cl)cc3)s2)C(=O)O)c1 [Example 2-183] |
| < 100 | ≥ 1000 | < 1000 | COC(=O)c1cccc(C2CC2(NS(=O)(=O)c2ccc(-c3ccc(Cl)cc3)s2)C(=O)O)c1 (stereo not drawn) [Example 2-184] |
| ≥ 1000 | ≥ 10000 | < 1000 | O=C(O)C1(CS(=O)(=O)N2CCN(c3ccc(C(F)(F)F)cn3)CC2)CC1c1ccccc1 (stereo not drawn) [Example 2-185] |
| ≥ 1000 | ≥ 10000 | ≥ 1000 | O=C(O)C1(CS(=O)(=O)N2CCN(c3ccc(Cl)cc3)CC2)CC1c1ccccc1 (stereo not drawn) [Example 2-186] |

| IC50 (aggrecanase-1) [nM] | IC50 (MMP-1) [nM] | IC50 (Recombinant Human MMP-13) [nM] | SMILES |
| --- | --- | --- | --- |
| ≥ 10000 | ≥ 10000 | ≥ 10000 | O=C(O)C1(CS(=O)(=O)c2ccc(-c3ccc(Cl)cc3)s2)CC1c1ccccc1 (stereo not drawn) [Example 2-187] |
| < 100 | ≥ 1000 | < 100 | COC(=O)Cc1cccc(C2CC2(NS(=O)(=O)c2ccc(-c3ccc(Cl)cc3)s2)C(=O)O)c1 (stereo not drawn) [Example 2-188] |
| < 100 | ≥ 10000 | < 100 | CN(C)C(=O)Cc1cccc(C2CC2(NS(=O)(=O)c2ccc(-c3ccc(Cl)cc3)s2)C(=O)O)c1 (stereo not drawn) [Example 2-189] |
| < 100 | ≥ 1000 | < 100 | O=C(Cc1cccc(C2CC2(NS(=O)(=O)c2ccc(-c3ccc(Cl)cc3)s2)C(=O)O)c1)N1CCOCC1 (stereo not drawn) [Example 2-190] |
| < 100 | ≥ 10000 | < 100 | CN1CCN(C(=O)Cc2cccc(C3CC3(NS(=O)(=O)c3ccc(-c4ccc(Cl)cc4)s3)C(=O)O)c2)CC1 (stereo not drawn) [Example 2-191] |
| < 1000 | ≥ 10000 | < 1000 | O=C(O)[C@@]1(NS(=O)(=O)c2ccc(-c3ccc(Cl)cc3)s2)C[C@H]1c1ccccc1 [Example 2-192] |
| < 1000 | ≥ 10000 | < 1000 | O=C(O)[C@]1(NS(=O)(=O)c2ccc(-c3cc(C(F)(F)F)on3)s2)C[C@@H]1c1ccccc1Br [Example 2-193] |
| < 1000 | ≥ 10000 | < 1000 | O=C(Cc1ccccc1C1CC1(NS(=O)(=O)c1ccc(-c2ccc(Cl)cc2)s1)C(=O)O)N1CCOCC1 (stereo not drawn) [Example 2-194] |
| < 1000 | ≥ 10000 | < 1000 | CN1CCN(C(=O)Cc2ccccc2C2CC2(NS(=O)(=O)c2ccc(-c3ccc(Cl)cc3)s2)C(=O)O)CC1 (stereo not drawn) [Example 2-195] |
| < 100 | ≥ 1000 | < 100 | O=C(O)c1ccccc1C1CC1(NS(=O)(=O)c1ccc(-c2ccc(Cl)cc2)s1)C(=O)O (stereo not drawn) [Example 2-196] |
| < 1000 | ≥ 10000 | < 1000 | O=C(O)C1(NS(=O)(=O)c2ccc(-c3ccc(Cl)cc3)s2)CC1c1cccc(OCCN2CCOCC2)c1 (stereo not drawn) [Example 2-197] |
| < 1000 | ≥ 10000 | < 1000 | CN1CCN(CCOc2cccc(C3CC3(NS(=O)(=O)c3ccc(-c4ccc(Cl)cc4)s3)C(=O)O)c2)CC1 (stereo not drawn) [Example 2-198] |
| < 1000 | ≥ 10000 | < 1000 | O=C(O)C1(NS(=O)(=O)c2ccc(-c3cc(C(F)(F)F)on3)s2)CC1c1cccc([N+](=O)[O-])c1 (stereo not drawn) [Example 2-199] |
| < 1000 | ≥ 10000 | < 1000 | CN1CCN(C(=O)c2cccc(C3CC3(NS(=O)(=O)c3ccc(-c4ccc(Cl)cc4)s3)C(=O)O)c2)CC1 (stereo not drawn) [Example 2-200] |
| < 1000 | ≥ 10000 | < 100 | Nc1cccc(C2CC2(NS(=O)(=O)c2ccc(-c3cc(C(F)(F)F)on3)s2)C(=O)O)c1 (stereo not drawn) [Example 2-201] |
| < 1000 | ≥ 10000 | < 1000 | O=C(O)C1(NS(=O)(=O)c2ccc(-c3ccc(Cl)cc3)s2)CC1c1ccc(Br)cc1 (stereo not drawn) [Example 2-202] |
| < 1000 | ≥ 10000 | < 100 | O=C(O)C1(NS(=O)(=O)c2ccc(-c3ccc(Cl)cc3)s2)CC1c1ccc(Br)cc1 (stereo not drawn) [Example 2-203] |
| < 100 | ≥ 10000 | < 1000 | CN(C)C(=O)Cc1ccccc1C1CC1(NS(=O)(=O)c1ccc(-c2ccc(Cl)cc2)s1)C(=O)O (stereo not drawn) [Example 2-204] |
| < 100 | ≥ 10000 | < 1000 | COC(=O)c1ccccc1C1CC1(NS(=O)(=O)c1ccc(-c2ccc(Cl)cc2)s1)C(=O)O (stereo not drawn) [Example 2-205] |
| < 100 | ≥ 1000 | < 100 | O=C(O)[C@]1(NS(=O)(=O)c2ccc(-c3ccc(Cl)cc3)s2)C[C@@H]1c1ccccc1CO [Example 2-206] |

Source: patent publication US20080261994A1, “CYCLOPROPANE COMPOUNDS AND PHARMACEUTICAL USE THEREOF” (Japan Tobacco Inc., priority 2003, published 2008)
